According to patent US6689790B2, “Substituted triazolopyridine compounds” (Hoffmann-La Roche Inc., priority 2001, dated 2004):

What was measured:
hA1 = target: T1, hA1 (Homo sapiens, UniProt P30542); assay: hA1 receptor affinity (Ki); type: binding; conditions: list of examples 10-108
T1 sequence (P30542 1-326): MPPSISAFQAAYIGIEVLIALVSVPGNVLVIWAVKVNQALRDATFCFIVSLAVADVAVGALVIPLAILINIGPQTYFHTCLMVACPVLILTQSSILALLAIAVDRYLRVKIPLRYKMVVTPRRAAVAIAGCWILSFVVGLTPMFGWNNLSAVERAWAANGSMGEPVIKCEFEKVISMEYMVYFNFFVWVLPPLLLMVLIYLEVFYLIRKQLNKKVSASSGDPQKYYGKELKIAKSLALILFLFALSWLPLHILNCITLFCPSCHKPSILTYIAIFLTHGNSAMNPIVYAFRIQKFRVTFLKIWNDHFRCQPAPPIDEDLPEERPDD

[1] = target: T2, human adenosine A2A receptor (Homo sapiens, UniProt P29274); assay: [3H]-SCH-58261 binding assay, human adenosine A2A receptor (CHO cell membranes, SPA); conditions: [3H]-SCH-58261 displacement; list of examples 10-108; read-out: hA2a Ki
T2 construct: expressed in transfected cells; host or cells: CHO cells, semliki forest virus expression system; washed membranes
T2 sequence (P29274 whole entry): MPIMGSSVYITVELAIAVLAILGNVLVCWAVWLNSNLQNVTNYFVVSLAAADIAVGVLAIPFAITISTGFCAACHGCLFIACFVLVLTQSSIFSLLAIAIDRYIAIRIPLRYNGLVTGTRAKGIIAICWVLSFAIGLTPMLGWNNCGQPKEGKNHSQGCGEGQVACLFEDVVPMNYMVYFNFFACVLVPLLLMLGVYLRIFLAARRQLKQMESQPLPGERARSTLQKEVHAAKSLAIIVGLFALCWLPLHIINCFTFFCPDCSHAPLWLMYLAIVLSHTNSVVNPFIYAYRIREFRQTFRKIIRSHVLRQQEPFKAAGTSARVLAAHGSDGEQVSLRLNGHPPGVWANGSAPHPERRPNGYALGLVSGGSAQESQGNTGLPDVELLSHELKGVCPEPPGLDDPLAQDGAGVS
Experimental: Human Adenosine A2A Receptor
The human adenosine A2A receptor was recombinantly expressed in chinese hamster ovary (CHO) cells using the semliki forest virus expression system. Cells were harvested, washed twice by centrifugation, homogenized and again washed by centrifugation. The final washed membrane pellet was suspended in a Tris (50 mM) buffer containing 120 mM NaCl, 5 mM KCl, 2 mM CaCl2 and 10 mM MgCl2 (pH 7.4) (buffer A). […] Compounds were tested at 10 concentrations from 10 μM-0.3 nM. All assays were conducted in duplicate and repeated at least two times. Assay plates were incubated for 1 hour at room temperature before centrifugation and then bound ligand determined using a Packard Topcount scintillation counter. IC50 values were calculated using a non-linear curve fitting program and Ki values calculated using the Cheng-Prussoff equation.

Compound | Ki (hA1) | Ki [1]
Nc1cc(C(=O)N2CCCC2)cn2nc(-c3cccs3)nc12 [Example 51, (8-Amino-2-thiophen-2-yl-[1,2,4]triazolo[1,5-a]pyridin-6-yl)-pyrrolidin-1-yl-methanone] | 725 nM | 
CCN(CC)C(=O)C1CCCN(C(=O)c2cc(N)c3nc(-c4ccc(Br)o4)nn3c2)C1 (stereo not shown) [Example 13, 1-[8-Amino-2-(5-bromo-furan-2-yl)-[1,2,4]triazolo[1,5-a]pyridine-6-carbonyl]-piperidine-3-carboxylic acid diethylamide] | 2690 nM | 
COC[C@@H]1CCCN1C(=O)c1cc(N)c2nc(-c3ccc(Br)o3)nn2c1 [Example 16, [8-Amino-2-(5-bromo-furan-2-yl)-[1,2,4]triazolo[1,5-a]pyridin-6-yl]-(2-methoxymethyl-pyrrolidin-1-yl)-methanone] | 1050 nM | 
Nc1cc(C(=O)N2CCCC2)cn2nc(-c3ccc(Br)o3)nc12 [Example 11, [8-Amino-2-(5-bromo-furan-2-yl)-[1,2,4]triazolo[1,5-a]pyridin-6-yl]-pyrrolidin-1-yl-methanone] | 1270 nM | 
Cc1ccc(-c2nc3c(N)cc(C(=O)N(C)CCc4ccccc4)cn3n2)s1 [Example 103, 8-Amino-2-(5-methyl-thiophen-2-yl)-[1,2,4]triazolo[1,5-a]pyridine-6-carboxylic acid methyl-phenethyl-amide] |  | 309 nM
Cc1ccc(-c2nc3c(N)cc(C(=O)N(C)CC(=O)N(C)C)cn3n2)s1 [Example 98, 8-Amino-2-(5-methyl-thiophen-2-yl)-[1,2,4]triazolo[1,5-a]pyridine-6-carboxylic acid dimethylcarbamoyl-methyl-methyl-amide] |  | 220 nM
CN(CCc1ccccc1)C(=O)c1cc(N)c2nc(-c3cccs3)nn2c1 [Example 67, 8-Amino-2-thiophen-2-yl-[1,2,4]triazolo[1,5-a]pyridine-6-carboxylic acid methyl-phenethyl-amide] |  | 395 nM
CCN(CC)C(=O)C1CCCN(C(=O)c2cc(N)c3nc(-c4ccco4)nn3c2)C1 (stereo not shown) [Example 40, 1-(8-Amino-2-furan-2-yl-[1,2,4]triazolo[1,5-a]pyridine-6-carbonyl)-piperidine-3-carboxylic acid diethylamide] |  | 371 nM
CCCCN(C)C(=O)c1cc(N)c2nc(-c3nccs3)nn2c1 [Example 106, 8-Amino-2-thiazol-2-yl-[1,2,4]triazolo[1,5-a]pyridine-6-carboxylic acid butyl-methyl-amide] |  | 844 nM
CCN(CC)C(=O)C1CCCN(C(=O)c2cc(N)c3nc(-c4cccs4)nn3c2)C1 (stereo not shown) [Example 56, 1-(8-Amino-2-thiophen-2-yl-[1,2,4]triazolo[1,5-a]pyridine-6-carbonyl)-piperidine-3-carboxylic acid diethylamide] |  | 684 nM
CCCN(C)C(=O)c1cc(N)c2nc(-c3ccccc3)nn2c1 [Example 79, 8-Amino-2-phenyl-[1,2,4]triazolo[1,5-a]pyridine-6-carboxylic acid methyl-propyl-amide] |  | 886 nM
Nc1cc(C(=O)N2CCCCC2)cn2nc(-c3ccccn3)nc12 [Example 27, (8-Amino-2-pyridin-2-yl-[1,2,4]triazolo[1,5-a]pyridin-6-yl)-piperidin-1-yl-methanone] |  | 548 nM
CCN(CC)C(=O)C1CCCN(C(=O)c2cc(N)c3nc(-c4ccccn4)nn3c2)C1 (stereo not shown) [Example 29, 1-(8-Amino-2-pyridin-2-yl-[1,2,4]triazolo[1,5-a]pyridine-6-carbonyl)-piperidine-3-carboxylic acid diethylamide] |  | 594 nM
CC(C)N(Cc1ccccc1)C(=O)c1cc(N)c2nc(-c3ccco3)nn2c1 [Example 36, 8-Amino-2-furan-2-yl-[1,2,4]triazolo[1,5-a]pyridine-6-carboxylic acid benzyl-isopropyl-amide] |  | 229 nM
Cc1ccc(-c2nc3c(N)cc(C(=O)N4CCSCC4)cn3n2)s1 [Example 102, [8-Amino-2-(5-methyl-thiophen-2-yl)-[1,2,4]triazolo[1,5-a]pyridin-6-yl]-thiomorpholin-4-yl-methanone] |  | 478 nM
CCCN(CCC)C(=O)c1cc(N)c2nc(-c3ccco3)nn2c1 [Example 38, 8-Amino-2-furan-2-yl-[1,2,4]triazolo[1,5-a]pyridine-6-carboxylic acid dipropylamide] |  | 370 nM
CCN(CCc1ccccn1)C(=O)c1cc(N)c2nc(-c3cccs3)nn2c1 [Example 65, 8-Amino-2-thiophen-2-yl-[1,2,4]triazolo[1,5-a]pyridine-6-carboxylic acid ethyl-(2-pyridin-2-yl-ethyl)-amide] |  | 718 nM

Compound | Ki (hA1) | Ki [1]
CCCN(C)C(=O)c1cc(N)c2nc(-c3ccco3)nn2c1 [Example 47, 8-Amino-2-furan-2-yl-[1,2,4]triazolo[1,5-a]pyridine-6-carboxylic acid methyl-propyl-amide] |  | 241 nM
CCN(CCOC)C(=O)c1cc(N)c2nc(-c3ccc(C)s3)nn2c1 [Example 99, 8-Amino-2-(5-methyl-thiophen-2-yl)-[1,2,4]triazolo[1,5-a]pyridine-6-carboxylic acid ethyl-(2-methoxy-ethyl)-amide] |  | 238 nM
CN(CCc1ccccc1)C(=O)c1cc(N)c2nc(-c3nccs3)nn2c1 [Example 108, 8-Amino-2-thiazol-2-yl-[1,2,4]triazolo[1,5-a]pyridine-6-carboxylic acid methyl-phenethyl-amide] |  | 988 nM
Nc1cc(C(=O)N2CCCC2)cn2nc(-c3ccccc3)nc12 [Example 68, (8-Amino-2-phenyl-[1,2,4]triazolo[1,5-a]pyridin-6-yl)-pyrrolidin-1-yl-methanone] |  | 246 nM
CC1CCCN(C(=O)c2cc(N)c3nc(-c4nccs4)nn3c2)C1 (stereo not shown) [Example 107, (8-Amino-2-thiazol-2-yl-[1,2,4]triazolo[1,5-a]pyridin-6-yl)-(3-methyl-piperidin-1-yl)-methanone] |  | 632 nM
Cc1ccc(-c2nc3c(N)cc(C(=O)N4CCCC4)cn3n2)s1 [Example 94, [8-Amino-2-(5-methyl-thiophen-2-yl)-[1,2,4]triazolo[1,5-a]pyridin-6-yl]-pyrrolidin-1-yl-methanone] |  | 213 nM
CN(CCc1ccccc1)C(=O)c1cc(N)c2nc(-c3ccccc3)nn2c1 [Example 81, 8-Amino-2-phenyl-[1,2,4]triazolo[1,5-a]pyridine-6-carboxylic acid methyl-phenethyl-amide] |  | 524 nM
CCCN(C)C(=O)c1cc(N)c2nc(-c3cccs3)nn2c1 [Example 63, 8-Amino-2-thiophen-2-yl-[1,2,4]triazolo[1,5-a]pyridine-6-carboxylic acid methyl-propyl-amide] |  | 440 nM
Cc1ccc(-c2nc3c(N)cc(C(=O)N4CCCCC4)cn3n2)s1 [Example 95, [8-Amino-2-(5-methyl-thiophen-2-yl)-[1,2,4]triazolo[1,5-a]pyridin-6-yl]-piperidin-1-yl-methanone] |  | 225 nM
CC1CCCN1C(=O)c1cc(N)c2nc(-c3cccs3)nn2c1 (stereo not shown) [Example 53, (8-Amino-2-thiophen-2-yl-[1,2,4]triazolo[1,5-a]pyridin-6-yl)-(2-methyl-pyrrolidin-1-yl)-methanone] |  | 233 nM
CCN(CC)C(=O)c1cc(N)c2nc(-c3ccc(C)s3)nn2c1 [Example 93, 8-Amino-2-(5-methyl-thiophen-2-yl)-[1,2,4]triazolo[1,5-a]pyridine-6-carboxylic acid diethylamide] |  | 322 nM
COCC1CCCN1C(=O)c1cc(N)c2nc(-c3ccc(C)s3)nn2c1 (stereo in doubt) [Example 97, [8-Amino-2-(5-methyl-thiophen-2-yl)-[1,2,4]triazolo[1,5-a]pyridin-6-yl]-((S)2-methoxymethyl-pyrrolidin-1-yl)-methanone] |  | 428 nM
CCN(CCOC)C(=O)c1cc(N)c2nc(-c3cccs3)nn2c1 [Example 61, 8-Amino-2-thiophen-2-yl-[1,2,4]triazolo[1,5-a]pyridine-6-carboxylic acid ethyl-(2-methoxy-ethyl)-amide] |  | 920 nM
COCC1CCCN1C(=O)c1cc(N)c2nc(-c3ccccc3)nn2c1 (stereo in doubt) [Example 75, (8-Amino-2-phenyl-[1,2,4]triazolo[1,5-a]pyridin-6-yl)-((S)-2-methoxymethyl-pyrrolidin-1-yl)-methanone] |  | 413 nM
CN(C)C(=O)[C@@H]1CCCN1C(=O)c1cc(N)c2nc(-c3ccccc3)nn2c1 [Example 76, 1-(8-Amino-2-phenyl-[1,2,4]triazolo[1,5-a]pyridine-6-carbonyl)-pyrrolidine-2-carboxylic acid dimethylamide] |  | 420 nM
CCCCN(C)C(=O)c1cc(N)c2nc(-c3ccccc3)nn2c1 [Example 71, 8-Amino-2-phenyl-[1,2,4]triazolo[1,5-a]pyridine-6-carboxylic acid methyl-butyl-amide] |  | 484 nM
COC[C@@H]1CCCN1C(=O)c1cc(N)c2nc(-c3ccccc3)nn2c1 [Example 74, (8-Amino-2-phenyl-[1,2,4]triazolo[1,5-a]pyridin-6-yl)-(2-methoxymethyl-pyrrolidin-1-yl)-methanone] |  | 196 nM
